# Source: patent publication US20010046509A1, “Use of cinnamic acid or of its derivatives in a cosmetic firming composition” (priority 1997, published 2001)
# System: normal human dermal fibroblast cultures
# Experiment: Effect on collagen synthesis: incorporation of radioactive proline into fibroblast cultures
# Type: cell-based
# Conditions: for tritiated proline incorporated, cpm (counts per minute): untreated cells 19261 cpm; for tritiated proline incorporation, % relative to untreated cells: untreated cells = 100
# Procedure: The study is carried out by measuring the incorporation of radioactive proline into normal human dermal fibroblast cultures. The fibroblast cultures are prepared according to the standard methods of cell culturing, i.e. in MEM/M199 medium sold by the company Gibco, in the presence of sodium bicarbonate (1.87 mg/ml), L-glutamine (2 mM), penicillin (50 IU/ml) and 10% foetal calf serum (Gibco). The test is carried out on cell cultures at 80% confluence on 24-well plates. Cinnamic acid, at a concentration of 10^−4M is placed in contact with the cells for 48 hours. Labelling with tritiated proline (L-[2,3-^3H]-proline sold by Amersham, 33 μCi/ml) is carried out for 24 hours. The level of tritiated proline incorporated is measured at the end of the test by acidic precipitation of the proteins on filters and counting by liquid scintillation. The results are assessed relative to a control consisting of cells which have not been treated with cinnamic acid. A positive control (20 μg/ml of vitamin C), which is known to stimulate collagen synthesis, and a negative control (10^−6M retinoic acid), which is known to inhibit collagen synthesis, are introduced into the test by way of reference.
# [1] = cinnamic acid 10^-4 M, 48 hours contact, 24 hours labelling
# [2] = negative control, 10^-6 M retinoic acid
# [3] = positive control, 20 μg/ml of vitamin C
smiles,measurement,setting,value
O=C(O)C=Cc1ccccc1 [Cinnamic acid],"incorporation of proline into collagen (collagen neosynthesis), result in words","cinnamic acid 10^-4 M, 48 hours",significantly stimulates the incorporation of proline into collagen
same,"tritiated proline incorporated, cpm (counts per minute)",[1],26209 cpm
same,"tritiated proline incorporation, % relative to untreated cells",[1],136%
"CC1=C(/C=C/C(C)=C/C=C/C(C)=C/C(=O)O)C(C)(C)CCC1 [Retinoic acid, retinoic acid]","tritiated proline incorporated, cpm (counts per minute)",[2],13160 cpm
same,"tritiated proline incorporation, % relative to untreated cells",[2],68%
"O=C1O[C@H]([C@@H](O)CO)C(O)=C1O [Vitamin C, vitamin C]","tritiated proline incorporated, cpm (counts per minute)",[3],40344 cpm
same,"tritiated proline incorporation, % relative to untreated cells",[3],209%
